Test results taken from patent publication US6982142B2, “Methods for screening therapeutically effective agents” (John Wayne Cancer Institute, priority 1997, dated 2006).
Read-outs that look alike come from different tables or passages of the source.

What was measured:
MCF-7-wt cells = assay: Cytotoxicity assay (Promega) in chemosensitive wild-type breast cancer cells; type: cell-based, human; conditions: C6-ceramide at increasing concentrations, 72 hr
MCF-7/GCS cells = type: cell-based, human; conditions: MCF-7/GCS vs MCF-7
Protocol: (§1) Cytotoxicity Assay. The assay was performed as previously described (Lavie, 1997). […] Cultures were incubated at 37° C. for 24 hr before addition of drug. Drugs were added in FBS-free medium (0.1 ml), and cells were cultured at 37° C. for the indicated periods. Drug cytotoxicity was determined using the Promega 96 Aqueous cell proliferation assay kit. Absorbance at 490 nm was recorded using an ELISA reader (Molecular Devices, San Diego, Calif.).
(§2) Adriamycin was used to assess the influence of GCS transfection on cellular response to anthracyclines. After pretreatment with doxycycline for two days, MCF-7/GCS cells were incubated with increasing concentrations of adriamycin for four days. […] It was observed that MCF-7/GCS cells were resistant to ceramide toxicity as well. […] However, the EC50 in the TC group was nearly identical with that of MCF-7 cells, there being no statistical difference between the two groups (FIG. 14C).

MCF-7 cells = assay: cells; type: cell-based; conditions: Homo sapiens, MCF7, 96 h, read-out: EC50 (cytotoxicity)
Protocol: as §1, §2

MCF-7-AdrR cells = assay: cells; conditions: Homo sapiens, read-out: cell viability
[1] = system: glucosylceramide synthase; assay: Glucosylceramide synthase radioenzymatic assay on microsomes of Tet-on GCS-transfected clones; type: cell-based, human
Protocol: Glucosylceramide Synthase Assay. To determine the expression of GCS in the hygromycin-resistant clones, a modified radioenzymatic assay was utilized (Lavie, 1997; Shukla, 1990). After incubation in the absence or presence of doxycycline (3 μg/ml, 48 hr), cells were homogenized by sonication in lysis buffer (50 mM Tris-HCl, pH 7.4, 1.0 μg/ml leupeptin, 10 μg/ml aprotinin, 25 μM PMSF). Microsomes were isolated by centrifugation (129,000×g, 60 min). The enzyme assay, containing 50 μg microsomal protein, in a final volume of 0.2 ml, was performed in a shaking water bath at 37° C. for 60 min. The reaction contained liposomal substrate composed of C6-ceramide (1.0 mM), phosphatidylcholine (3.6 mM, MW 786.15), and brain sulfatides (0.9 mM, MW 563). The liposomal substrate was prepared by mixing the components, evaporating the solvents under a stream of nitrogen, and sonicating in water over ice for 1-min using a microtip at 50% output (Kontes, Micro Ultrasonic Cell Disrupter). Other reaction components included sodium phosphate buffer (0.1 M) pH 7.8, EDTA (2.0 mM), MgCl2 (10 mM), dithiothreitol (1.0 mM), β-NAD (2.0 mM), and [^3H]UDP-glucose (0.5 mM). Radiolabeled and unlabeled UDP-glucose were diluted to achieve the desired radiospecific activity (4,700 dpm/nmol). To terminate the reaction, tubes were placed on ice and 0.5 ml isopropanol and 0.4 ml Na2SO4 were added. After brief vortex mixing, 3 ml t-butyl methyl ether was added and the tubes were mixed for 30 sec. After centrifugation, 0.5 ml upper phase which contained GC, was withdrawn and mixed with 4.5 ml EcoLume for analysis of radioactivity by liquid scintillation spectroscopy.
After co-transfection of pTRE-GCS and pTK-Hyg into clone 1 and clone 16 of MCF-7 Tet-on cells, 65 hygromycin-resistant clones were selected. […] Compared with a basal level of 17.2±0.1 pmol GC in MCF-7 wt cells, doxycycline-induced GCS activity in MCF-7/GCS12, […] and MCF-7/GCS14 was to 167.4±17.2, 183.3±12.4, and 90.2±2.76 pmol GC, respectively (FIG. 13A). There were no differences in either basal or doxycycline-induced GCS activity in transfection control cells (TC) or in the basal level of GCS in MCF-7 wt cells (FIG. 13A). In MCF-7/GCS13 and MCF-7/GCS14, the doxycycline-inducible GCS activities were 1.6-fold and 4.1-fold, respectively, above untreated cells. The MCF-7/GCS14 clone was designated MCF-7/GCS, and this clone was used in further experiments.

GCS mRNA = assay: Northern blot of GCS mRNA expression in MCF-7/GCS cells; type: cell-based, human
Protocol: (A) Northern Blot showing regulated expression of GCS mRNA in MCF-7 and MCF-7/GCS cells incubated with the indicated concentrations of doxycycline (dox, μg/ml). Total RNA per lane was 15 micrograms. Ethidium bromide-stained RNA (28 S) was used as a control for even loading. Densities of GCS/28 S RNA (×100) in MCF-7/GCS cells were 16, 18, 97, 256 at 0, 0.1, 1.0 and 3.0 μg/ml doxycycline, respectively. (B) Dose-response of GCS activity to doxycycline. Cells were incubated for 96 hr in medium containing the indicated concentrations of doxycycline. GCS activity was analyzed by radioenzymatic assay. * p<0.01, **p<0.001 compared with MCF-7 cells. (C) Doxycycline-induced resistance to ceramide. Cells were pretreated with the indicated concentrations of doxycycline for 48 hr, seeded in 96-well plates, and treated the following day with 5 μM C6ceramide in RPMI-1640 medium containing 5% FBS. Cell viability was determined after 96 hr. Data represent the mean ±SD of six replicates from two independent experiments. Control cells were cultured in medium without C6-ceramide. * p<0.001 compared to MCF-7 cells; **p<0.001, compared to MCF-7 cells exposed to 1.0 μg/ml doxycycline.
RNA Analysis. RNA was extracted from cells using the single-step method described by Chomczynski and Sacchi (Chomczynski, 1987). Equal amounts of total RNA (15 μg) were denatured in 59% formamide/2.2 M formaldehyde, size separated by electrophoresis on 1% agarose-formaldehyde, and then blotted onto nitrocellulose-plus (Sambrook, 1989). GCS cDNA was prepared from pCG-2 plasmid, digested with EcoR I, and Hind III (Stratagene, La Jolla, Calif.). […]
If ceramide resistance is induced by GCS expression in MCF-7/GCS cells, the resistance response should be tightly correlated with the level of the inducer, doxycycline. It was determined that increasing doxycycline concentrations correlated closely with increased expression of GCS, which in turn correlated well with increased resistance of the cells to C6ceramide. […]

EC50 in MCF-7/GCS cells relative to EC50 in MCF-7 cells (MCF-7/GCS cells)	EC50 in MCF-7/GCS cells relative to EC50 in MCF-7 cells (MCF-7/GCS cells; listed as ceramide)	SMILES	cell viability, dose-response (MCF-7-wt cells)	EC50 (MCF-7 cells)	viability at 10 µM (MCF-7-AdrR cells; 72 h)	viability at 5 µM (MCF-7-AdrR cells)	doxycycline-induced GCS activity ([1]; clone MCF-7/GCS3 (so in the source), doxycycline 3 μg/ml)	doxycycline-induced GCS activity ([1]; clone MCF-7/GCS12, doxycycline 3 μg/ml)	doxycycline-inducible GCS activity above untreated cells ([1]; clone MCF-7/GCS13)	doxycycline-inducible GCS activity above untreated cells ([1]; clone MCF-7/GCS14)	doxycycline-induced GCS activity ([1]; clone MCF-7/GCS14, doxycycline 3 μg/ml)	GCS mRNA density (GCS band/28 S RNA×100) (GCS mRNA; doxycycline 0.1 μg/ml)	GCS mRNA density (GCS band/28 S RNA×100) (GCS mRNA; doxycycline 1.0 μg/ml)	GCS mRNA density (GCS band/28 S RNA×100) (GCS mRNA; doxycycline 3.0 μg/ml)
4 fold	5 fold	CCCCCCCCCCCCC/C=C/[C@@H](O)[C@H](CO)NC(=O)CCCCC [C6-ceramide, N-hexanoylsphingosine]	dose dependent decrease in viability	3.1 ± 0.5 µM	84%	86%								
		C[C@H]1c2cccc(O)c2C(=O)C2=C(O)[C@]3(O)C(=O)C(C(N)=O)=C(O)[C@@H](N(C)C)[C@@H]3[C@@H](O)[C@@H]21.Cl [doxycycline, Doxycycline hydrochloride]					183.3±12.4 pmol GC	167.4±17.2 pmol GC	1.6 fold	4.1 fold	90.2±2.76 pmol GC	18	97	256
